{"source": "patent US5677297A", "about": "“Benzazepine-, benzoxazepine- and benzothiazepine-n-acetic acid derivatives, process for their preparation and pharmaceutical compositions containing them” (Solvay Pharmaceuticals GmbH, priority 1995, dated 1997)", "key": {"[1]": {"biological_target": "neutral endopeptidase (NEP), purified NEP (E.C.3.4.24.11) (Homo sapiens, UniProt P08473)", "sequence (P08473 whole entry)": "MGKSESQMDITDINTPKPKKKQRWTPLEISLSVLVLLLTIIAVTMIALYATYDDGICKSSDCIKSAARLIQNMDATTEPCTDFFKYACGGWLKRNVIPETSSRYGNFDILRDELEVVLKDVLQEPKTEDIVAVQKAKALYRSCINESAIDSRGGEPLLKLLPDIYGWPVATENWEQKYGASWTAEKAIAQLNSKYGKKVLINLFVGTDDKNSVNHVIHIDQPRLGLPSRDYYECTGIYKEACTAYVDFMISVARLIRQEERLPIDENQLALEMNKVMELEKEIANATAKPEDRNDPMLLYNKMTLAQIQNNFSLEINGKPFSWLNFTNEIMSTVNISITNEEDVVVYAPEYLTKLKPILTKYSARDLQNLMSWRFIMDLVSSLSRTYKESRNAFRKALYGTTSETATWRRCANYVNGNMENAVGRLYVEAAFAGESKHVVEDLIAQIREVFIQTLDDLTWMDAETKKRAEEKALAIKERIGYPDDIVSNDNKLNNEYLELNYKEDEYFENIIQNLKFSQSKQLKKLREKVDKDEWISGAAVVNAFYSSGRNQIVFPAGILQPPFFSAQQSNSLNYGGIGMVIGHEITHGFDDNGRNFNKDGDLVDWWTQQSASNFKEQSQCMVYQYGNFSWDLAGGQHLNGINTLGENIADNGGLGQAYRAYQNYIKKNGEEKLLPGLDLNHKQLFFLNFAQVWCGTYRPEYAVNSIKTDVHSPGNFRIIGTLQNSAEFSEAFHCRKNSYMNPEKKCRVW", "experiment": "In vitro investigation of the NEP-inhibitory effect (hydrolytic degradation of met-enkephalin)", "assay_type": "biochemical", "details": "substrate met-enkephalin, 37° C., pH 7.4", "description": "2. In vitro investigation of the NEP-inhibitory effect of the substances and determination of the affinity of the substance molecules for the enzyme molecule. […] The Ki (inhibitor constant) of each substance was determined as a measure of its inhibitory activity. The Ki of a test substance with enzyme-inhibiting activity is the dissociation constant for the enzyme/test substance complex or the (enzyme/substrate)--test substance complex and has units of concentration.\nTo carry out the test, respective 100 μl samples of various incubation solutions containing 10 ng of purified NEP (E.C.3.4.24.11) and in each case different amounts of test substance and of substrate (met-enkephalin)and 50 mM tris buffer (=tris(hydroxymethyl)aminomethane/HCl, pH 7.4) were prepared.\nFor each test substance, 24 different incubation solutions were prepared with 3 different test substance concentrations respectively combined with met-enkephalin contents of 2, 5, 7, 10, 12, 15, 40 and 100 μm.\nIn each test, two types of control incubation solutions were also processed, on the one hand enzyme controls which contain no test substance, and on the other hand substrate controls which contain neither enzyme nor test substance.\nThe incubation solutions were incubated in a shaking water bath at 37° C. for 45 minutes. The enzyme reaction was started after 15 minutes by adding the substrate (metenkephalin) and was stopped at the end of the incubation time by heating at 95° C. for 5 minutes. The stopped incubation solution was then centrifuged at 12,000×g for 3 minutes, and the concentrations of unreacted substrate and of hydrolysis products formed by the enzymatic reaction were determined in the supernatant. For this purpose, samples of each of the respective supernatants were fractionated by HPLC (high-pressure liquid chromatography) on hydrophobized silica gel, and the products of the enzymatic reaction and unreacted substrate were determined by photometry at a wavelength of 205 nm. The HPLC separation was carried out using a column (4.6×250 mm) which contains Encapharm™ 100 RP18 having an average particle size of 5 μm as reversed phase separation material. The solvent flow rate was 1.4 ml/min, and the column was warmed to 40° C. Mobile phase A was 5 mM H3 PO4, pH 2.5, and mobile phase B was acetonitrile +1% 5 mM H3 PO4, pH 2.5.\nThe Ki for each test substance was calculated in a known manner from the concentrations of hydrolysis products and unreacted substrate measured in the various samples. […] The example numbers indicated in Table B refer to the following preparation examples."}, "[2]": {"experiment": "In vivo determination of the effect on diuresis/natriuresis in volume-loaded rats", "set-up": "species or system rat (male Wistar)", "details": "urine collected over 60 min", "description": "4. In vivo determination of the effect of the substances on diuresis/natriuresis in volume-loaded rats.\nThe in vivo activity was investigated in volume-loaded rats. In this experiment a high cardiac filling pressure was caused by infusion of isotonic sodium chloride solution, which results in ANP release and thus diuresis/natriuresis.\nThe tests are carried out with male Wistar rats having a body weight of 200-400 g. Under neuroleptanalgesia (fentanyl; Hypnorm™, manufactured by Janssen), a catheter was placed in the right femoral vein for the baseline infusion and the volume loading with isotonic sodium chloride solution. After the abdominal cavity had been opened, a second catheter was inserted into the bladder, and the urethra was tied off so that it was possible to measure the urine volume, natriuresis and kaliuresis.\nThe abdominal cavity was closed again and the animals received a continuous infusion with sodium chloride solution (0.5 ml/100 g body weight) throughout the 2 hours of the test. After an equilibration period of 30 minutes, in a preliminary phase before the test substance was given, urine samples were collected three times over a period of 10 minutes in each case. These preliminary values (\"predrug\" values) were determined in order to check that there was a continuous flow of urine in the test animals.\nThe solutions containing test substances were then administered intravenously (bolus injection into the femoral vein) or orally (by gavage) to groups of 10 rats each. With both modes of administration, in each case one control group of animals received only placebo solutions which contained no active substance. 5 Minutes after i.v. administration or 120 minutes after oral administration of the substances, the rats were loaded with an increased volume of sodium chloride solution i.v. (2 ml/100 g body weight in 2 minutes) and the urine was collected over a period of 60 min. The amounts of urine produced in this period were determined, and the sodium and potassium contents therein were measured. The increase in excretion which took place under volume loading by comparison with the preliminary values was deduced from the resulting amounts of urine.\nFurthermore, the amounts of sodium and potassium excreted under volume loading after administration of test substance are also indicated as a percentage of the amounts of sodium and potassium excreted under volume loading after placebo administration."}}}
{"smiles": "O=C(O)CN1C(=O)[C@@H](NC(=O)C2(C[C@@H](CCc3ccccc3)C(=O)O)CCCC2)CCc2ccccc21", "note": "[Example 8, (3S,2'R)-3-[1-(2'-Carboxy-4'-phenylbutyl)cyclopentane-1-carbonylamino]-2,3,4,5-tetrahydro-2-oxo-1H-1-benzazepine-1-acetic acid]", "values": [{"measurement": "Ki", "setting": "[1]", "result": 0.4, "unit": "nM"}, {"measurement": "Increase in the excretion of urine under volume loading after administration of test substance as % based on the increase after placebo administration", "setting": "[2]; 0.1 mg/kg i.v.", "result": 123.5, "unit": "%"}, {"measurement": "Increase in the excretion of urine under volume loading after administration of test substance as % based on the increase after placebo administration", "setting": "[2]; 1.0 mg/kg i.v.", "result": 153.7, "unit": "%"}, {"measurement": "K excretion under volume loading, amount excreted after administration of test substance as % of the amount excreted after placebo administration", "setting": "[2]; 0.1 mg/kg i.v.", "result": 80.8, "unit": "%"}, {"measurement": "K excretion under volume loading, amount excreted after administration of test substance as % of the amount excreted after placebo administration", "setting": "[2]; 1.0 mg/kg i.v.", "result": 121.8, "unit": "%"}, {"measurement": "Na excretion under volume loading, amount excreted after administration of test substance as % of the amount excreted after placebo administration", "setting": "[2]; 0.1 mg/kg i.v.", "result": 160.9, "unit": "%"}, {"measurement": "Na excretion under volume loading, amount excreted after administration of test substance as % of the amount excreted after placebo administration", "setting": "[2]; 1.0 mg/kg i.v.", "result": 230.4, "unit": "%"}]}
